Measured values as given in DBAASP.
In brackets after ≈: the same amount, converted by molar mass. Several values for one entry are separate records, joined by “and”; a condition that tells them apart may be missing. Equal values may be shown once.

Columns and labels:
Experiment in all cases: ≥ marks a high value that may be exact or a test limit, other limits are often not marked, values filed in µg/mL are converted to µM
[1] = test system: Salmonella enterica subsp. enterica serovar Pullorum C79-13
[2] = test system: Salmonella enterica subsp. enterica serovar Typhimurium ATCC 14028
[3] = test system: Staphylococcus aureus ATCC 29213
[4] = test system: Salmonella enterica subsp. enterica serovar Typhimurium C77-31
[5] = test system: Lacticaseibacillus rhamnosus 1.0911
Escherichia coli K88 = test system: Escherichia coli K88
Escherichia coli UB1005 = test system: Escherichia coli UB1005
[6] = test system: Lactiplantibacillus plantarum 8014
[7] = test system: Lacticaseibacillus rhamnosus 1.0936
[8] = test system: Staphylococcus aureus ATCC 43300
Escherichia coli K99 = test system: Escherichia coli K99
[9] = test system: Pseudomonas aeruginosa ATCC 27853
[10] = test system: Lacticaseibacillus rhamnosus 1.0385
[11] = test system: Escherichia coli ATCC 25922
[12] = test system: Staphylococcus aureus ATCC 25923
[13] = test system: Lacticaseibacillus rhamnosus 7469
[14] = test system: Candida albicans ATCC 36232
[15] = test system: Staphylococcus aureus ATCC 6538
[16] = test system: Micrococcus luteus ATCC 9341
[17] = test system: Staphylococcus epidermidis ATCC 12228
[18] = test system: Salmonella enterica subsp. enterica serovar Choleraesuis CVCC 503
[19] = test system: Enterococcus faecalis ATCC 29212
Staphylococcus aureus = test system: Staphylococcus aureus
Streptococcus agalactiae = test system: Streptococcus agalactiae
[20] = test system: Bacillus subtilis ATCC 23857
Staphylococcus aureus 75 = test system: Staphylococcus aureus 75
[21] = test system: Staphylococcus aureus 113
[22] = test system: Acinetobacter baumannii 9931
[23] = test system: Acinetobacter baumannii ATCC 19606
[24] = test system: Pseudomonas aeruginosa ATCC 9027
Escherichia coli 780 = test system: Escherichia coli 780
[25] = test system: Klebsiella pneumoniae ATCC 700603
[26] = test system: Pseudomonas aeruginosa 50

Row | Compound | MIC [1] [µM] | MIC [2] [µM] | MIC [3] | MIC [4] [µM] | MIC [5] [µM] | MIC (Escherichia coli K88) [µM] | MIC (Escherichia coli UB1005) [µM] | MIC [6] [µM] | MIC [7] [µM] | MIC [8] [µM] | MIC (Escherichia coli K99) [µM] | MIC [9] [µM] | MIC [10] [µM] | MIC [11] [µM] | MIC [12] | MIC [13] [µM] | MIC [17] [µM] | MIC [18] [µM] | MIC [19] [µM] | MIC (Staphylococcus aureus) [µM] | other results
1 | C[C@H](NC(=O)[C@H](C)NC(=O)[C@H](Cc1c[nH]c2ccccc12)NC(=O)[C@H](Cc1c[nH]c2ccccc12)NC(=O)[C@H](Cc1c[nH]c2ccccc12)NC(=O)[C@@H](N)CCCN=C(N)N)C(N)=O [RWWWAA] | ≥ 64 | > 64 | > 64 µM | ≥ 64 | ≥ 64 | ≥ 64 | ≥ 64 | ≥ 64 | ≥ 64 | > 64 | ≥ 64 | > 64 | ≥ 64 | > 64 | > 64 µM | ≥ 64 | – | – | – | – | –
2 | C[C@@H]1NC(=O)[C@@H](N)CSSC[C@@H](C(=O)N[C@@H](CCCN=C(N)N)C(=O)N[C@@H](Cc2c[nH]c3ccccc23)C(=O)N[C@@H](Cc2c[nH]c3ccccc23)C(=O)N[C@@H](Cc2c[nH]c3ccccc23)C(=O)N[C@@H](CCCN=C(N)N)C(=O)N[C@@H](CCCN=C(N)N)C(N)=O)NC(=O)[C@H](Cc2ccccc2)NC(=O)[C@H](Cc2ccc(O)cc2)NC(=O)[C@H](CO)NC1=O [CASYFCRWWWRR] | 8 (≈ 13.7 µg/mL) | 64 (≈ 110 µg/mL) | – | ≥ 32 | ≥ 64 | ≥ 32 | 8 (≈ 13.7 µg/mL) | ≥ 64 | ≥ 64 | 4 (≈ 6.87 µg/mL) | 4 (≈ 6.87 µg/mL) | > 64 | ≥ 64 | 8 (≈ 13.7 µg/mL) | 4 µM (≈ 6.87 µg/mL) | ≥ 64 | – | – | – | – | –
3 | CC(C)[C@H](NC(=O)[C@H](CCCCN)NC(=O)[C@H](Cc1ccccc1)NC(=O)[C@@H](NC(=O)[C@@H](NC(=O)[C@@H](N)CCCCN)C(C)C)C(C)C)C(=O)N[C@@H](CCCCN)C(=O)N[C@@H](Cc1ccccc1)C(=O)N[C@@H](CCCCN)C(=O)N[C@@H](CCCCN)C(=O)N[C@@H](CCCCN)C(N)=O [KVVFKVKFKKK] | – | – | – | – | – | – | – | – | – | – | – | – | – | – | – | – | – | – | – | – | MIC [14]: 4.53 µM and 2.27 µM and 3.21 µM; MIC [15]: 2.27 µM (≈ 3.13 µg/mL); MIC [16]: 2.27 µM (≈ 3.13 µg/mL)
4 | CC[C@H](C)[C@H](N)C(=O)N[C@H](C(=O)N[C@@H](CS)C(=O)N[C@@H](CCCN=C(N)N)C(=O)N[C@@H](CCCCN)C(=O)N1CCC[C@H]1C(=O)N[C@H](C(=O)N[C@H](C(=O)N[C@@H](CS)C(=O)N[C@@H](CCCN=C(N)N)C(=O)N[C@@H](CCCCN)C(=O)N1CCC[C@H]1C(=O)N[C@H](C(=O)N[C@H](C(=O)N[C@@H](CS)C(=O)N[C@@H](CCCN=C(N)N)C(=O)N[C@@H](CCCCN)C(=O)N1CCC[C@H]1C(=O)N[C@H](C(=O)N[C@H](C(=O)N[C@@H](CS)C(=O)N[C@@H](CCCN=C(N)N)C(=O)N[C@@H](CCCCN)C(=O)N1CCC[C@H]1C(=O)N[C@H](C(=O)N[C@H](C(N)=O)[C@@H](C)CC)[C@@H](C)CC)[C@@H](C)CC)[C@@H](C)CC)[C@@H](C)CC)[C@@H](C)CC)[C@@H](C)CC)[C@@H](C)CC)[C@@H](C)CC [IICRKPIICRKPIICRKPIICRKPII] | 8 (≈ 24.7 µg/mL) | 2 (≈ 6.17 µg/mL) | 32 µM and 64 µM | 2 (≈ 6.17 µg/mL) | – | – | 1 (≈ 3.09 µg/mL) | – | – | 16 (≈ 49.4 µg/mL) | – | – | – | – | – | – | 16 (≈ 49.4 µg/mL) | 4 (≈ 12.3 µg/mL) | 32 (≈ 98.8 µg/mL) | 16 (≈ 49.4 µg/mL) | MIC (Streptococcus agalactiae): 16 µM (≈ 49.4 µg/mL)
5 | CC(C)[C@H](N)C(=O)N[C@@H](CS)C(=O)N[C@@H](CCCN=C(N)N)C(=O)N[C@@H](CCCCN)C(=O)N1CCC[C@H]1C(=O)N[C@H](C(=O)N[C@H](C(=O)N[C@@H](CS)C(=O)N[C@@H](CCCN=C(N)N)C(=O)N[C@@H](CCCCN)C(=O)N1CCC[C@H]1C(=O)N[C@H](C(=O)N[C@H](C(=O)N[C@@H](CS)C(=O)N[C@@H](CCCN=C(N)N)C(=O)N[C@@H](CCCCN)C(=O)N1CCC[C@H]1C(=O)N[C@H](C(N)=O)C(C)C)C(C)C)C(C)C)C(C)C)C(C)C [VCRKPVVCRKPVVCRKPV] | ≥ 64 | 8 (≈ 16.5 µg/mL) | > 64 µM | 16 (≈ 33.1 µg/mL) | – | – | 16 (≈ 33.1 µg/mL) | – | – | > 64 | – | – | – | 8 (≈ 16.5 µg/mL) | – | – | > 64 | ≥ 64 | > 64 | > 64 | MIC (Streptococcus agalactiae): ≥ 64 µM
6 | NC(=O)[C@H](Cc1c[nH]c2ccccc12)NC(=O)[C@H](CCCN=C(N)N)NC(=O)[C@H](Cc1c[nH]c2ccccc12)NC(=O)[C@H](Cc1c[nH]c2ccccc12)NC(=O)[C@H](CCCN=C(N)N)NC(=O)[C@H](Cc1c[nH]c2ccccc12)NC(=O)[C@H](Cc1c[nH]c2ccccc12)NC(=O)[C@H](CCCN=C(N)N)NC(=O)[C@H](Cc1c[nH]c2ccccc12)NC(=O)[C@H](Cc1c[nH]c2ccccc12)NC(=O)[C@H](CCCN=C(N)N)NC(=O)[C@H](Cc1c[nH]c2ccccc12)NC(=O)[C@H](Cc1c[nH]c2ccccc12)NC(=O)[C@H](CCCN=C(N)N)NC(=O)[C@@H](N)Cc1c[nH]c2ccccc12 [WRWWRWWRWWRWWRW] | – | – | 8 µM (≈ 21.3 µg/mL) | – | – | – | – | – | – | – | – | 16 (≈ 42.6 µg/mL) | – | – | 8 µM and 16 µM | – | 4 (≈ 10.6 µg/mL) | – | – | – | MIC [20]: 4 µM (≈ 10.6 µg/mL); MIC (Staphylococcus aureus 75): 8 µM (≈ 21.3 µg/mL); MIC [21]: 4 µM (≈ 10.6 µg/mL); MIC [22]: 16 µM (≈ 42.6 µg/mL); MIC [23]: 16 µM (≈ 42.6 µg/mL); MIC [24]: 16 µM (≈ 42.6 µg/mL); MIC (Escherichia coli 780): 16 µM (≈ 42.6 µg/mL); MIC [25]: 16 µM (≈ 42.6 µg/mL); MIC [26]: ≥ 32 µM
